What was measured:
Assay type in all cases: cell-based
[1] = biological target: IKZF3 Aiolos (Homo sapiens, UniProt Q96SW2+Q9UKT9); assay: Human CD8+ T Cell Reprogramming Assay (method headed Human CD8+ T Cell Degradation Assay); parameters: Foxp3-BV421, HELIOS-PE-Cy7, EOS-PE, IKAROS-PECF594, AIOLOS-AF647; endogenous in cells; host or cells: human PBMC from healthy donors (CD8+ T cells gated by flow cytometry); conditions: for IKZF3* Aiolos max % deg. observed: Table E summary, Human CD8+ T Cell Reprogramming Assay (D-1); for DC50 / IKZF3 Aiolos Maximum Observed Degradation: human PBMC, CD8+ T cells, 24 hours; for DC50: vs DMSO alone
Sequence of IKZF3 Aiolos (Q9UKT9 whole entry): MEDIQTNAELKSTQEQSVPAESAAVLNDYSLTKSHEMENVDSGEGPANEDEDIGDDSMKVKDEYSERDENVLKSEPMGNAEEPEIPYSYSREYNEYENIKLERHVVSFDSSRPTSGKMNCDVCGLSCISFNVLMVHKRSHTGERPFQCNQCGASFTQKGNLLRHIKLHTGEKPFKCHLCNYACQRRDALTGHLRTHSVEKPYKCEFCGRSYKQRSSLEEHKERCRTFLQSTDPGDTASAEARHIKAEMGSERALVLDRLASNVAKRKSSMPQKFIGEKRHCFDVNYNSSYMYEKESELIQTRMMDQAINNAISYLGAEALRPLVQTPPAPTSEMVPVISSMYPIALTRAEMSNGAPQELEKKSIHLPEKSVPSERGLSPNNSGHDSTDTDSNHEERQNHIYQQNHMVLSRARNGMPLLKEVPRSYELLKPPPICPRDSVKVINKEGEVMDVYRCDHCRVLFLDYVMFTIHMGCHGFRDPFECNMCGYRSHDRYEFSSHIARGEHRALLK
Sequence of IKZF3 Aiolos (Q96SW2 whole entry): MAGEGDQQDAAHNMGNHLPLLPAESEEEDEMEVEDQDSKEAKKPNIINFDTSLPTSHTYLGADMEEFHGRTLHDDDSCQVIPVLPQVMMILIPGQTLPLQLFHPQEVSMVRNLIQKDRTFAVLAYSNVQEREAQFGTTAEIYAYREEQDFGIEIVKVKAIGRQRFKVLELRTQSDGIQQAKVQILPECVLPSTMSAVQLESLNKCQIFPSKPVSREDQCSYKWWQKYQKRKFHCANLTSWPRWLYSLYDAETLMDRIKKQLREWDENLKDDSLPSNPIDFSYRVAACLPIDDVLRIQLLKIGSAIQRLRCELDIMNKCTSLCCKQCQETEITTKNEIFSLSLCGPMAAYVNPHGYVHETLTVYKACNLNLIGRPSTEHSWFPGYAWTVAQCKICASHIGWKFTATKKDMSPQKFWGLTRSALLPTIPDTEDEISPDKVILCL
Sequence of IKZF3 Aiolos (Q16531 whole entry partner): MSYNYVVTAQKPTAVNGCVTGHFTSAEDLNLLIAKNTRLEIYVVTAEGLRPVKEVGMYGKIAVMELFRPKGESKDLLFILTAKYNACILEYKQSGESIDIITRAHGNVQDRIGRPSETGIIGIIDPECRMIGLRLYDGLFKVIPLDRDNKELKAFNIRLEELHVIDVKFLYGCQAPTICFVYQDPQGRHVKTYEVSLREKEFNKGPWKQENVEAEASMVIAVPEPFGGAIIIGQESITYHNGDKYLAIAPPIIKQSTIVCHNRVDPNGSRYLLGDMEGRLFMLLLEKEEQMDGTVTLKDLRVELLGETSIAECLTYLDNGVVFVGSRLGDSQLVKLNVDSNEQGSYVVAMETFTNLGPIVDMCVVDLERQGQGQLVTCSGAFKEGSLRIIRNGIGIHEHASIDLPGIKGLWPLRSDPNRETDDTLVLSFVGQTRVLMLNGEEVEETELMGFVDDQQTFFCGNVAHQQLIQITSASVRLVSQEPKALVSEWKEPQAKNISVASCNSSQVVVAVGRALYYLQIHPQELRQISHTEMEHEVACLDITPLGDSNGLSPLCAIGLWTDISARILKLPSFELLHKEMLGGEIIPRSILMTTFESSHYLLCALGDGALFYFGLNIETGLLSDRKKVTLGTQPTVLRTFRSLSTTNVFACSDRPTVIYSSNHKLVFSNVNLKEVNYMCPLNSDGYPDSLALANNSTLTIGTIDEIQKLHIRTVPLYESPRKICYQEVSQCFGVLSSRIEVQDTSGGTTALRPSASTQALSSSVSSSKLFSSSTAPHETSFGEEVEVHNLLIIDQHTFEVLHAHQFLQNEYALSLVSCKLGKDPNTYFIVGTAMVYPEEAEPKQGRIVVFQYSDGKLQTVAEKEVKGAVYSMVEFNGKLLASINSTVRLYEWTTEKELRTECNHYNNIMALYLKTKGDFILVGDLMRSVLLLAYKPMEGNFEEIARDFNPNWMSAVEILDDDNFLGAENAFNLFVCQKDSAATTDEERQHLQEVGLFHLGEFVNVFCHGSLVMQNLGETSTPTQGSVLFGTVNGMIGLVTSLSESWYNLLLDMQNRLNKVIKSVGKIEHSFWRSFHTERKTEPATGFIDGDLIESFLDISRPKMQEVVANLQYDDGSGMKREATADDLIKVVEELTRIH
Procedure: (§1) Cryopreserved healthy donor human peripheral blood mononuclear cells (PBMC) from healthy donors were thawed and seeded at 500,000 cells/well of 96-well round bottom plates in RPMI 1640 media (Gibco) supplemented with 10% FBS, Pen/Strep (Gibco), MEM-NEAA (Gibco), and sodium pyruvate (Gibco). Cells were treated with titrated doses of compound for 24 hours at 37 °C, 5% CO2, before analyzing by flow cytometry.
(§2) For flow cytometry staining, cells were washed twice with flow cytometry staining buffer (Thermo Fisher) and incubated in Human Tru-stain Fc block (Biolegend) for 10 minutes before adding eFluor780 viability dye (Thermo Fisher) and surface marker antibody cocktail containing LD-eFluor780, CD3-BUV-395, CD4-BUV805, CD8-FITC, and CD25-BV605 for 30 minutes at 4 °C, Cells were then fixed and permeabilized by incubation with permeabilization buffer (eBioscience FoxP3 buffer set 00-5523-00) for 30 minutes at 4 °C as per the kit manufacturer's instructions. Cells were washed twice with the Perm/Wash buffer supplied in the kit as per the manufacturer's instructions and incubated overnight at 4 °C with an intracellular antibody cocktail comprised of antibodies specific for the transcription factors (i.e. , Foxp3-BV421, HELIOS-PE-Cy7, EOS-PE, IKAROS-PECF594, AIOLOS-AF647). Cells were washed twice with Perm/Wash buffer and resuspended in flow cytometry staining buffer (Thermo Fisher) prior to acquisition. Sample acquisition and analysis was performed using a BD LSRFortessa (BD Biosciences) flow cytometer. Single-stain controls for each fluorochrome were prepared using UltraComp eBead Compensation Beads (Thermo Fisher). Data were analyzed using FlowJo version 10 and GraphPad Prism Software. TABLE D-1

[2] = biological target: IKZF1 Ikaros (Homo sapiens, UniProt Q13422+Q96SW2); assay: as above; parameters: Foxp3-BV421, HELIOS-PE-Cy7, EOS-PE, IKAROS-PECF594, AIOLOS-AF647; endogenous in cells; host or cells: human PBMC from healthy donors (CD8+ T cells gated by flow cytometry); conditions: for IKZF1* Ikaros max % deg. observed: Table E summary, Human CD8+ T Cell Reprogramming Assay (D-1); for DC50 / IKZF1 Ikaros Maximum Observed Degradation: human PBMC, CD8+ T cells, 24 hours; for DC50: vs DMSO alone
Sequence of IKZF1 Ikaros (Q13422 whole entry): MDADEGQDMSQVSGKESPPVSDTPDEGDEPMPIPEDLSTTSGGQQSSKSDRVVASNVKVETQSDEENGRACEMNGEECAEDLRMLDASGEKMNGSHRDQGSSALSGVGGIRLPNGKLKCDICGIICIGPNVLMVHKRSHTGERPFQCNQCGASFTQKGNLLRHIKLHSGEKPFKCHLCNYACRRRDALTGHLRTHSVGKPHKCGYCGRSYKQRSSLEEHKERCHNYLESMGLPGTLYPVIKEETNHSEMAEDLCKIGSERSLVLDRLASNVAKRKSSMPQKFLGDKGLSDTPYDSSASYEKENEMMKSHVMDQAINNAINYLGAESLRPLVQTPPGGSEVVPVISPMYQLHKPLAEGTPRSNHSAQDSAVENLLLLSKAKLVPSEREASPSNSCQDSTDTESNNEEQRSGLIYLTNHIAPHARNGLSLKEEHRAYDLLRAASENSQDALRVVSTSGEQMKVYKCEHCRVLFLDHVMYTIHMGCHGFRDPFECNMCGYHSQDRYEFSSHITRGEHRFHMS
Sequence of IKZF1 Ikaros (Q96SW2 whole entry): as the sequence (Q96SW2 whole entry) above
Sequence of IKZF1 Ikaros (Q16531 whole entry partner): as the sequence (Q16531 whole entry partner) above
Procedure: as §1, §2

[3] = biological target: T1, IKZF4 Eos (Homo sapiens, UniProt Q96SW2+Q9H2S9); assay: Human Regulatory T Cell Reprogramming Assay; conditions: for DC50: 12-13 days, vs DMSO alone; for IKZF4*** Eos max % or deg. observed: Table E summary, Human Regulatory T Cell Reprogramming Assay (C-1)
T1 construct: endogenous in cells; host or cells: primary human CD4+CD127lowCD25+ Treg cells from healthy leukopaks
T1 sequence (Q9H2S9 whole entry): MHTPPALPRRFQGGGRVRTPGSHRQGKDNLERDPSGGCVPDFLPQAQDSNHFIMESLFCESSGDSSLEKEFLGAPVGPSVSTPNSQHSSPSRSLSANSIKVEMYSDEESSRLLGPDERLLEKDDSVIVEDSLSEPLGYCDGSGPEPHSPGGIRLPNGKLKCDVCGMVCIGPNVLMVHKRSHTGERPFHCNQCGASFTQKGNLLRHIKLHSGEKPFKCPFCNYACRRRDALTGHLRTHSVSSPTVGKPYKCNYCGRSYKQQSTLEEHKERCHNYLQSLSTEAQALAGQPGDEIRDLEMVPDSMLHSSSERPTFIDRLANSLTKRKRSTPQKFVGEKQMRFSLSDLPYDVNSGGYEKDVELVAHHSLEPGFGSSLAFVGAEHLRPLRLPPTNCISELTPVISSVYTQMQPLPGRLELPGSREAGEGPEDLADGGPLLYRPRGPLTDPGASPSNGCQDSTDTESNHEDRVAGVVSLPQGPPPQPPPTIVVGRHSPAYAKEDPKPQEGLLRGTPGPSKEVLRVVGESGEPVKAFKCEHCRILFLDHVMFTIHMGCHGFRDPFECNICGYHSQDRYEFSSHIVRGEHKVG
T1 sequence (Q96SW2 whole entry): as the sequence (Q96SW2 whole entry) above
T1 sequence (Q16531 whole entry partner): as the sequence (Q16531 whole entry partner) above
Procedure: (§3) Human CD4^+ T cells were isolated from fresh healthy leukopaks (Stemcell Technologies) using the RosetteSep Human CD4^+ T cell enrichment cocktail (Stemcell Technologies) and Ficoll density gradient centrifugation. Leukopaks were diluted with an equal volume of phosphate-buffered saline (PBS [Gibco]) supplemented with 2% fetal bovine serum (FBS, VWR Lifescience) and incubated with RosetteSep Human CD4^+ T cell enrichment cocktail for 20 minutes before layering on Ficoll-Paque Plus solution (GE Health Care). The cell-rich interface layer was harvested and washed twice with PBS supplemented with 2% FBS. Regulatory T cells were then isolated manually using the EasySep Human CD4^+CD127^lowCD25^+ Regulatory T cell isolation kit (Stemcell Technologies) according to the manufacturer's instructions. Cells were rested overnight in Roswell Park Memorial Institute (RPMI) 1640 media (Gibco) supplemented with 10% FBS, Pen/Strep (Gibco), MEM-NEAA (Gibco), and sodium pyruvate (Gibco) in a humidified incubator (37 °C, 5% CO2). Cells were then stained for CD4 (clone: RPA-T4, Biolegend), CD25 (clone: 2A3, BD Biosciences), and CD127 (clone: hIL-7R-M21, BD Biosciences). CD4^+CD127^lowCD25^+ cells were sorted on a BD FACS Aria Fusion sorter to a purity of 95%) or greater. Sorted cells were immediately used or cryopreserved for downstream assays.
(§4) Fresh or cryopreserved FACS-sorted CD4^+CD127^lowCD25^+ Treg cells were cultured at 25,000-50,000 cells/well of 96-well round bottom plates in RPMI 1640 media (Gibco) supplemented with 10% FBS, Pen/Strep (Gibco), MEM-NEAA (Gibco), and sodium pyruvate (Gibco). Cells were stimulated with Treg Xpander beads (Thermo Fisher) at cells-to-beads ratio of 1:4 in the presence of 500 U/mL recombinant human IL-2 (Proleukin). Compounds were added at titrated doses and cells were incubated at 37 °C, 5% CO2 for 12-13 days. Recombinant human IL-2 and compound were replenished every 2-3 days during the entire culture duration. On day 12 or 13, cells were restimulated with phorbol 12-myristate 13-acetate (PMA,) and ionomycin in the presence of the protein transport inhibitors brefeldin A and monensin (eBioscience Cell Stimulation Cocktail plus protein transport inhibitors, 500x, Catalog number 00-4975-93) before proceeding with flow cytometry staining and analysis.
(§5) For flow cytometry staining, cells were washed twice with flow cytometry staining buffer (Thermo Fisher) and incubated in Human Tru-stain Fc block (Biolegend) for 10 minutes before adding eFluor780 viability dye (Thermo Fisher) and surface marker antibody cocktail for 30 minutes at 4 °C. Cells were then fixed and permeabilized by incubation with FoxP3 transcription factor staining buffer (Thermo Fisher) for 30 minutes at 4 °C as per the kit manufacturer's instructions. Cells were washed twice with the Perm/Wash buffer supplied in the kit as per the manufacturer's instructions and incubated overnight at 4 °C with an intracellular antibody cocktail comprised of antibodies specific for the transcription factors shown in Table C. Cells were washed twice with Perm/Wash buffer and resuspended in flow cytometry staining buffer (Thermo Fisher) prior to acquisition. Sample acquisition and analysis was performed using a BD LSRFortessa (BD Biosciences) flow cytometer. Single stain controls for each fluorochrome were prepared using UltraComp eBead Compensation Beads (Thermo Fisher). Data were analyzed using FlowJo version 10 and GraphPad Prism Software. TABLE C

[4] = biological target: IKZF2 Helios (Homo sapiens, UniProt Q96SW2+Q9UKS7); assay: Human Regulatory T Cell Reprogramming Assay; parameters: endogenous in cells; host or cells: primary human CD4+CD127lowCD25+ Treg cells from healthy leukopaks; conditions: CD4+CD127lowCD25+ Treg cells; for IKZF2 Helios max % deg. observed: 12-13 days with compound; for DC50: 12-13 days, vs DMSO alone
Sequence of IKZF2 Helios (Q9UKS7 whole entry): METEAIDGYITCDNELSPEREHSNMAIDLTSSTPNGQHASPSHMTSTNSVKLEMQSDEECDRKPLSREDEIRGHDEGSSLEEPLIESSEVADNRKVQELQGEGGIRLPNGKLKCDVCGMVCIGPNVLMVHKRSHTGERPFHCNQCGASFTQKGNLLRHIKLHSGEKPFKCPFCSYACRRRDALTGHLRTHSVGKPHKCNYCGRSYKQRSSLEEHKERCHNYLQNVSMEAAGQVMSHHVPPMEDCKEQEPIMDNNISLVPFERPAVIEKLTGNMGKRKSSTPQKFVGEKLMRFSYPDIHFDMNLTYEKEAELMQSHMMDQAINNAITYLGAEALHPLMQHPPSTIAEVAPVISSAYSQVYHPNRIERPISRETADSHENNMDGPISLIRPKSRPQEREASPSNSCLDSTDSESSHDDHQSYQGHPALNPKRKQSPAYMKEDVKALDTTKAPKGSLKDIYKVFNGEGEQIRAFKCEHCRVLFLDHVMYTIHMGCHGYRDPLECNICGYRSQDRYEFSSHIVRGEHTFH
Sequence of IKZF2 Helios (Q96SW2 whole entry): as the sequence (Q96SW2 whole entry) above
Sequence of IKZF2 Helios (Q16531 whole entry partner): as the sequence (Q16531 whole entry partner) above
Procedure: as §3, §4, §5

| Compound | IKZF3* Aiolos max % deg. observed [1] [%] | DC50 [1] [nM] | IKZF1* Ikaros max % deg. observed [2] [%] | DC50 [2] [nM] | DC50 ([3]; CD4+CD127lowCD25+ Treg cells) [nM] | IKZF4*** Eos max % or deg. observed [3] [%] | IKZF2 Helios max % deg. observed [4] [%] | DC50 [4] [nM] | IKZF3 Aiolos Maximum Observed Degradation [1] [%] | IKZF4 Eos max % deg. observed ([3]; CD4+CD127lowCD25+ Treg cells, 12-13 days with compound) [%] | IKZF1 Ikaros Maximum Observed Degradation [2] [%] |
| --- | --- | --- | --- | --- | --- | --- | --- | --- | --- | --- | --- |
| Cc1cc(-c2ccc(-c3cn(C4CCC(=O)NC4=O)c(=O)o3)c(F)c2)nc(N)c1NCC1CCOCC1 (stereo not drawn) [Example 3, 3-(5-(4-(6-amino-4-methyl-5-(((tetrahydro-2H-pyran-4-yl)methyl)amino)pyridin-2-yl)-2-fluorophenyl)-2-oxooxazol-3(2H)-yl)piperidine-2,6-dione] | 67 | 193 | 67 | 181 | 4 | 84 | 73 | 247 |  |  |  |
| Cc1cc(-c2ccc(-c3cn(C4CCC(=O)NC4=O)c(=O)o3)c(F)c2)nc(N)c1COC1CCOCC1 (stereo not drawn) [Example 5, 3-(5-(4-(6-Amino-4-methyl-5-(((tetrahydro-2H-pyran-4-yl)oxy)methyl)pyridin-2-yl)-2-fluorophenyl)-2-oxooxazol-3(2H)-yl)piperidine-2,6-dione] | 72 | 131 | 56 | 366 | 7 | 46 |  |  | 72 | 46 |  |
| CO[C@H]1C[C@H](Oc2c(C)cc(-c3ccc(-c4cn(C5CCC(=O)NC5=O)c(=O)o4)c(F)c3)nc2N)C1 (relative stereo) [Example 2, trans 3-(5-(4-(6-amino-5-(3-methoxycyclobutoxy)-4-methylpyridin-2-yl)-2-fluorophenyl)-2-oxooxazol-3(2H)-yl)piperidine-2,6-dione] | 58 | 86 | 53 | 132 | 3 | 72 | 74 | 205 |  |  |  |
| CC1(C)Cc2cc(-c3ccc(-c4cn(C5CCC(=O)NC5=O)c(=O)o4)c(F)c3)nc(N)c2O1 (stereo not drawn) [Example 1, 3-(5-(4-(7-amino-2,2-dimethyl-2,3-dihydrofuro[2,3-c]pyridin-5-yl)-2-fluorophenyl)-2-oxooxazol-3(2H)-yl)piperidine-2,6-dione] | 76 | 18 | 76 | 53 | 2 | 84 | 72 | 45 |  |  |  |
| O=C1CCC(n2cc(-c3ccc(Br)cc3F)oc2=O)C(=O)N1 (stereo not drawn) [Comparative Compound B, 3-(5-(4-bromo-2-fluorophenyl)-2-oxooxazol-3(2H)-yl)piperidine-2,6-dione, reference compound] | 0 | > 1000 | 17 | > 1000 | > 1000 | 11 | 6 | > 1000 | 0 |  | 17 |
| O=C1CCC(n2cc(-c3ccccc3)oc2=O)C(=O)N1 (stereo not drawn) [Comparative Compound A, 3-(2-oxo-5-phenyloxazol-3(2H)-yl)piperidine-2,6-dione, reference compound] | 80 | 21 | 74 | 113 | > 1000 | 0 | 1 | > 1000 | 80 |  | 74 |
| COC1CCN(Cc2ccc(-c3ccc(-c4cn(C5CCC(=O)NC5=O)c(=O)o4)c(F)c3)nc2N)CC1 (stereo not drawn) [Example 4, 3-(5-(4-(6-amino-5-((4-methoxypiperidin-1-yl)methyl)pyridin-2-yl)-2-fluorophenyl)-2-oxooxazol-3(2H)-yl)piperidine-2,6-dione] | 77 | 18 | 80 | 15 | 4 | 80 | 66 | 155 |  |  |  |

— patent EP4568957B1, “SUBSTITUTED PHENYL OXOOXAZOLYL PIPERIDINE DIONE COMPOUNDS” (Bristol-Myers Squibb Company, priority 2023, dated 2025)
